US11364285B2, “Methods, compositions, and molecular targets that exploit synergies and symbioses in the termite gut” (priority 2016, dated 2022)

Tests used:
[1] = system: hindgut protist symbiont populations; test: Protist counts after imidacloprid treatment; format: in vivo, R. flavipes; settings: 48 hr imidacloprid exposure
Protocol: To determine if imidacloprid indirectly or directly impacted protist and bacteria gut symbiont populations, post-hoc tests were performed using multiple independent termite colonies. Protist counts were made using five laboratory colonies as previously described. Bacterial CFU counts were done via aerobic culturing using two laboratory colonies; one that had been in the lab for >2 years (“colony 1”) and one collected from the field 1 month earlier (“colony 2”). […] Whole guts dissected from individual termites were sonicated in 250 μL of PBS, serially diluted, and spotted (2 μL) onto nutrient agar plates.

[2] = system: aerobic, culturable bacterial community from the R. flavipes digestive tract; test: Imidacloprid-loaded discs on plated gut homogenates; format: cell-based; settings: concentrations of 1-1000-fold higher than used in the feeding assays
Protocol: (§1) After incubation at 26° C. for 24 hours, plates were examined—spots producing 3-10 CFUs were used to estimate the total number of aerobic culturable bacteria per termite. In addition, dilutions of gut homogenates were directly plated onto nutrient agar; discs loaded with serial dilutions of imidacloprid were added to these plates to examine its direct impact on the culturable bacteria.

[3] = system: gut bacteria (16S rDNA abundance); test: 16S qPCR of relative bacterial DNA abundance in guts; format: in vivo, R. flavipes; settings: 48 hours exposure; two colonies
Protocol: as §1
DNA was isolated from termite whole guts following control or imidacloprid treatments in bioassays using the Epicentre Yeast DNA extraction kit, including RNase treatment (Madison, Wis.). Following isolation, DNA samples were subjected to phenol-chloroform cleanup and concentrated using sodium acetate-ethanol precipitation. qPCR reactions were performed in triplicate with SensiFast SYBR No ROX kit (Bioline; Taunton, Mass.), 50 ng of sample DNA, nuclease-free water, and degenerate 16S rDNA primers. Primers amplified a 291 bp fragment containing the V4 hypervariable region of the 16S rRNA gene. Host DNA was quantified using primers specific to an apparent single-copy host gene, Actin 5C-1. Data were normalized to Actin 5C-1 to determine the relative abundance of 16S amplicons in the control and imidacloprid-treated DNA preparations.

Reticulitermes flavipes = test: Termite behavior and pathology observed in the bioassays (grooming, tunneling, light repellency); format: in vivo; settings: sublethal concentration
[4] = system: host gut and protist/symbiont genes; format: in vivo
Protocol: After two days, a subset of ten termites was removed from each of the replicate colony treatments (20 total samples), cold-immobilized, surface-sterilized by a serial rinse in 0.3% sodium hypochlorite (1×) and sterilized water (2×), and dissected on Parafilm to collect digestive tracts, including salivary glands. Digestive tracts were transferred into RLA Lysis Buffer (Promega, Fitchburg, Wis., USA) and stored at −70° C. until RNA isolation. RNA extraction and cDNA synthesis was performed.
Experiments were designed after MIAME guidelines. A type II microarray design was used with a common-reference strategy. The common reference consisted of a normalized blend of all RNA samples included in the experiment. This common reference was co-hybridized against each replicate sample on single microarrays. Dye swaps were performed between replicate samples and references to check for potential dye impacts on spot intensity. […] Specifically, such microarrays contained a mix of ˜14,500 cDNA oligonucleotides representing 10,500 host gut and protist/symbiont genes, including stereotypical immune response genes, thereby providing simultaneous assessments of host and protist gene expression. Reported analyses consisted of five pairwise comparisons to a common control as denoted by the numbers 1-5 in FIG. 4. More specific microarray data are provided in S15-S20 Tables of Sen et al. 2015, PLoS ONE 10(4): e0123391 (the “Sen Article”), which is hereby incorporated by reference herein in its entirety. […] Genbank accession numbers for sequences at each microarray position are provided in S21-S23 Tables of the Sen Article.
Before comparative analysis, the individual signal intensity values obtained from the microarray probes were log-transformed (using 2 as the base) and normalized among all individual samples included in the study. […] After the data were normalized, t-tests were used to make probe-by-probe comparisons among treatments. In each comparison, a p-value and fold change were computed for all microarray loci. In addition to p-values, q-values were computed. While the p-value measures the minimum statistical false-positive rate incurred when setting a threshold for test significance, the q-value measures the minimum false-discovery rate incurred when calling that test significant.
The generated contigs and the remaining orphan sequences were used for further analyses using the program BLAST2GO for identification and annotation. By using the inbuilt BLASTx algorithm, these sequences were used as queries in BLASTx searches against the Genbank non-redundant (nr) database with an e-value cut-off of ≤1e-03. The putative identification, annotation, and Gene Ontology (GO) terms for the sequences also were obtained through BLAST2GO. KEGG analyses were also performed.

amidohydrolase 2 gene = test: qPCR of amidohydrolase 2 expression after kanamycin treatment and B. bassiana challenge; format: in vivo, R. flavipes; settings: 5% kanamycin 48 h, then B. bassiana; compared to water treated controls
Source text: To investigate whether symbiont removal reduced amidohydrolase expression, groups of 10 workers from three independent colonies were subjected to a treatment of 5% kanamycin (controls received water only) for 48-hours and subsequently challenged with a low dose of B. bassiana conidia (as above). 5% Kanamycin was used for bacterial symbiont removal based on extensive preliminary research. These bioassays were held for 48-hours before termite guts were dissected for RNA extraction. cDNA was synthesized using the Bioline SensiFast cDNA Synthesis kit using 1 μg total RNA as template. qPCR was performed using the SensiFast no ROX SYBR Master Mix (Bioline) and amidohydrolase 2 gene specific primers as well as Actin 5C as a reference gene (see Table S.2 of the Peterson & Scharf Article).

[5] = system: termite workers challenged with B. bassiana; test: Post-hoc bioassay of termite susceptibility to B. bassiana after kanamycin; format: in vivo, R. flavipes
Protocol: Similarly, post-hoc bioassays were performed to determine if 5% kanamycin treatment was sufficient to increase termite susceptibility to B. bassiana. As above, groups of 10 termites were treated with 5% kanamycin or water (controls) for 48-hours, and then inoculated with a low dose of B. bassiana conidia suspended in 0.5% Tween-20 or a blank of 0.5% Tween-20 solution (controls). All together, these four groups allowed the investigators to account for any baseline mortality caused by antibiotic treatment. These bioassays were held for 7 days before scoring survivorship.

[6] = gut, 2 days post-exposure, vs solvent control
[7] = passing array positions, before contig formation

O=[N+]([O-])NC1=NCCN1Cc1ccc(Cl)nc1 [I, imidacloprid]
Reduction of representative protist groups [1]: 25-50%
Treated termite colonies with reduced protist populations [1]: 5 of 6
Growth suppression of culturable gut bacteria by imidacloprid-impregnated paper discs [2]: failed to suppress the growth
Effect on total bacterial DNA abundance (16S PCR signals) [3]: did not detect any impact
Termite behaviors (tunneling, grooming, light repellency) (Reticulitermes flavipes): neither produced tunnels nor were repelled by light
Effect on expression of innate immune / antimicrobial genes ([4]; gut, 2 days): failed to substantially alter
Differentially expressed contigs and singletons, Overall [4, 6]: 393
Downregulated contigs and singletons, Host [4, 6]: 8
Downregulated contigs and singletons, Mixed [4, 6]: 3
Downregulated contigs and singletons, Symbiont [4, 6]: 205
Downregulated contigs and singletons, Totals [4, 6]: 216
Upregulated contigs and singletons, Mixed [4, 6]: 1
Upregulated contigs and singletons, Symbiont [4, 6]: 19
Upregulated contigs and singletons, Totals [4, 6]: 177
Downregulated array positions [4, 7]: 504
Upregulated transcripts in the array (array positions) [4, 7]: 260

NC[C@H]1O[C@H](O[C@H]2[C@H](O)[C@@H](O[C@H]3O[C@H](CO)[C@@H](O)[C@H](N)[C@H]3O)[C@H](N)C[C@@H]2N)[C@H](O)[C@@H](O)[C@@H]1O [kanamycin]
Reduction of amidohydrolase 2 gene expression in pathogen challenged termites (amidohydrolase 2 gene): ~5 ×
Increase in termite susceptibility to B. bassiana ([5]; 5% kanamycin 48 h, normalized mortality at 7 days post inoculation): 3 ×
Increase in termite worker susceptibility to B. bassiana ([5]; 5% kanamycin, 7 days): 3 fold
